Source: patent US9289444B2, “Composition for promoting hematogenesis containing quercetin 3-O-β-(2″-galloyl)-rhamnopyranoside as active ingredient” (Chungbuk National University Industry Academic Cooperation …, priority 2011, dated 2016)

Legend:
BMNCs = assay: Semisolid colonogenic assay (BFU-E colonies); type: cell-based, mouse
Protocol: To investigate the effects of QGR on erythroid lineage development in mouse HSCs and EPCs, the colonogenic assay was performed according to the manufacturer's instruction in triplicate by plating 2×10^5 cells/plate using methylcellulose stock solution in IMDM (R&D Systems) with cocktail (rIL-3 100 units/ml plus rSCF 5 units/ml plus rEpo 3 units/ml) or/and QGR (0, 100 or 200 μM/ml) in 35 mm-diameter cell culture plates. These plates were put in 100 mm-diameter plates with 3 ml of autoclaved distilled water and incubated at 37° C. in 5% CO2 humidity air. 14 days later, BFU-E colonies were counted under an Axiovert 40 CFL inverted microscope (Carl Zeiss, Oberkochen, Germany).

[1] = test system: bone marrow failure mouse induced by busulphan (BU); assay: Flow cytometric analysis of bone marrow cells in BU bone marrow failure model; type: in vivo, Balb/c mice
Protocol: Bone marrow failure model induced by administering busulphan (BU) was designed according to the procedures previously described by Molyneux et al (Cell Biol Toxicol 27, 13-40, 2011) and the scheme is shown in FIG. 8. BU (Sigma chemicals, Poole, Dorset, UK) was dissolved in acetone to a final concentration of 18.8 mg/ml, diluted five-fold with distilled water, and was intraperitoneally administered three times for 5 days with the dose of 0.2 ml BU solution per mouse. Equal amount of five-fold diluted acetone solution without BU was administered to vehicle control group. QGR was dissolved in dimethylsulfoxide and diluted with distilled water to a final concentration of 1.25%. Mice were orally administered every two days with QGR (0.25 mg/mouse) for 63 days. Seven or eight mice were sacrificed on days of 1, 5, 10, 16, 25, 40, 49, and 63 after BU administration and were investigated to confirm the effect of QGR to recover bone marrow failure.
In order to investigate whether QGR has an activity to recover bone marrow failure induced by BU administration, the expression of markers associated with hematopoietic stem cells/progenitors (Sca-1^+ or c-kit^+), bone mesenchymal stem/progenitor cells (Sca-1^+CD44^+), apoptotic hematopoietic stem cells (c-Kit^+7-aminoactinomycin D^+) were measured by flow cytometry. The retrieved BMNCs with the concentration of 0.6×10^6 cells/ml were precipitated by centrifugation, re-suspended in 100 μl of PBS containing 0.02% sodium azide and 2% FBS, and incubated with 10 μl of mouse anti-CD16/CD32 Ab (eBioScience, San Diego, Calif., USA) as FC receptor blocker for 3 min at room temperature. After that, monoclonal antibodies for c-kit (2B8, BD Pharmingen, USA), Sca-1 (D7, eBioscience), CD44 (IM7, eBioscience) were added and further incubated for 30 min under the temperature of 4° C. Isotype-matched irrelevant rat IgG2b-FITC (eBioscience) and isotype-matched irrelevant rat IgG2a-PE (eBioscience) were used as negative control. The flow cytometric analysis was carried out using FACS Calibur (Becton Dickinson, Oxnard, Calif., USA) and the percentage of positively stained cells was determined. The double staining of c-kit and 7-AAD (Calbiochem-Novabiochem, Nottingham, UK) was carried out according to the procedures previously described by Philpott et al (Exp Hematol, 23, 1642-1648, 1995).

## CC1OC(Oc2c(-c3ccc(O)c(O)c3)oc3cc(O)cc(O)c3c2=O)C(OC(=O)c2cc(O)c(O)c(O)c2)C(O)C1O (stereo not drawn) [QGR, quercetin 3-O-β-(2″-galloyl)-rhamnopyranoside]
BMNCs; cocktail (rIL-3, rSCF and rEpo) plus 200 μM QGR, p<0.01
  formation and growth of BFU-E colonies compared with the positive control: 1.43 fold
BMNCs; day 14, 100 or 200 μM/ml for QGR, dose-dependent
  number of BFU-E colonies compared with negative control: significantly enhanced
BMNCs; day 14, QGR alone vs rIL-3+rSCF+rEpo
  number of BFU-E colony compared with positive control: smaller than that of positive control
[1]; after 10 days of QGR administration, vs positive control group
  number of cells positive for Sca-1 (HSPCs): increased
[1]; at 10 days after QGR administration, significant difference from positive control at 16 days
  number of c-kit positive cells (HSPCs): increased
[1]; time course, remarkably decreased in positive control group
  number of MSPCs (CD44+Sca-1+ cells): no change
[1]; time course, significantly increased from 10 days in positive control group
  number of apoptotic HSPCs: no change
